In patent publication US20250108139A1, “PEPTIDE UREA DERIVATIVE, PHARMACEUTICAL COMPOSITION CONTAINING PEPTIDE UREA DERIVATIVE, AND APPLICATION OF PEPTIDE UREA DERIVATIVE” (BIVISION PHARMACEUTICALS, INC, priority 2022, published 2025):
pKd: −log10 of the molar value.

How the values were obtained:
[1] = molecular target: PSMA protein (Homo sapiens (Human), UniProt Q04609); assay: Affinity of DB compounds to PSMA protein using Biacore (Effect Example 3); details: Biacore 8K, 15° C., 1:1 binding model; pKD=−Log KD
Protocol: The affinity of DB compounds to PSMA protein was tested using the Biacore 8K (Cytiva) instrument to detect ligand binding to PSMA protein (Sino Biological). PSMA protein was captured on an SA chip. Before fixing the ligand (flow paths 1 and 2, flow rate of 10 μL/min), PSMA protein (10 μg/mL, flow rate of 5 μL/min, injection time of 600 s) was fixed on flow path 2 using a flow buffer. The sensor surface was adjusted by continuously injecting 1 M NaCl three times in 50 mM NaOH. After each ligand injection, additional cleaning was performed using isopropanol in 1 M NaCl and 50 mM NaOH (flow paths 1 and 2, flow rate of 10 μL/min, injection time of 60 s).
All compounds were dissolved in 100% DMSO and diluted to 10 mM, then further diluted to the appropriate highest concentration in the analysis buffer (PBS, PH 7.4, 1 mM TCEP ([…]), 0.05% P20, 2% DMSO). The analysis was conducted under the following conditions: 15° C. analysis temperature; analysis steps=all set to LMW kinetics; cycle type=single cycle (90 s contact time, 1800 s dissociation time, 30 μL/min flow rate, flow paths 1 and 2); detection in flow=path 2-1. Data evaluation was performed using Biacore Insight Evaluation Software, fitting the data to a 1:1 binding model.
Biacore results are shown in Table 5: pKD=−Log KD, wherein KD is the binding affinity of the compound to PSMA protein measured by Biacore. It is expressed by Kd (M)=Kd (1/s)/Ka (1/Ms). A indicates pKD>8; B indicates 7<pKD<8; C indicates 6<pKD<7; D indicates pKD<6.

[2] = tested on: PSMA-positive 22rv1 tumor-bearing mouse; assay: 177Lu labeling and animal biodistribution experiment, gamma counter; format: in vivo; details: 177Lu-labeled compound, 24 h after tail vein injection, n = 2
Protocol: Distribution in PSMA-positive tumor-bearing mouse tissues: Tumor-bearing animals (purchased from Shanghai Alamo Pharmaceutical Technology Co., Ltd.) were subcutaneously inoculated with 3×10^6 22rv1 cells (in 50% Matrigel, Corning) into the right shoulder region of 6-9 week old (Balb/c Nude) mouse. Once the tumors had grown to an appropriate size, ^177Lu-radiolabeled DB compounds were injected into the mouse via the tail vein (approximately 1.85 MBq-3.7 MBq/mouse, specific activity: 22423.82 Kbq/μg). After administration, the animals were euthanized using carbon dioxide inhalation at 24 hours. The blood and organs (blood, liver, kidney, muscle, tumor) were collected.
Blood was collected through the abdominal aorta and 100 μL was immediately quantified into designated centrifuge tubes (weighed). After collection, the organs were washed twice with deionized water, dried, placed in pre-weighed tubes, and weighed again to calculate the sample weight. Samples were measured on the day of collection. All blood and tissue samples were measured for radioactivity using a gamma counter. The results are shown in FIGS. 3, 4, 5, 6, 7, and Table 6.

[3] = tested on: human prostate cancer cell line 22RV1 tumor model; assay: Micro-SPECT/CT scanning imaging study in mouse transplanted with 22RV1; format: in vivo; details: for Uptake in Bladder / Uptake in Kidney / Uptake in Liver / Uptake in Muscle / Uptake in Tumor (22Rv1): i.v., Micro-SPECT/CT
Protocol: Human prostate cancer cell line 22RV1 cells were subcutaneously injected into the axilla of nude mouse to establish a prostate cancer tumor model. Approximately 3.7 MBq (100 μCi/200 μL) of the ^177Lu-labeled compound [^177Lu] DB-01 was administered via intravenous injection. SPECT/CT images were acquired using the U-SPECT+/CT (MI Labs) at 3rd hour, 5th hour, 24th hour, 72nd hour, 120th hour and 168th hour post-injection, and the resulting SPECT/CT images were quantitatively analyzed.
Table 4 presents the uptake in various organs of mouse at the 3rd hour, 5th hour, 24th hour, 72nd hour, 120th hour, and 168th hour post-injection of [^177Lu] DB-01. The results are expressed as the quantitative percentage of the injected dose (% ID)/g, based on Micro-SPECT/CT quantitative analysis.

Chain of PSMA protein (Q04609 whole entry): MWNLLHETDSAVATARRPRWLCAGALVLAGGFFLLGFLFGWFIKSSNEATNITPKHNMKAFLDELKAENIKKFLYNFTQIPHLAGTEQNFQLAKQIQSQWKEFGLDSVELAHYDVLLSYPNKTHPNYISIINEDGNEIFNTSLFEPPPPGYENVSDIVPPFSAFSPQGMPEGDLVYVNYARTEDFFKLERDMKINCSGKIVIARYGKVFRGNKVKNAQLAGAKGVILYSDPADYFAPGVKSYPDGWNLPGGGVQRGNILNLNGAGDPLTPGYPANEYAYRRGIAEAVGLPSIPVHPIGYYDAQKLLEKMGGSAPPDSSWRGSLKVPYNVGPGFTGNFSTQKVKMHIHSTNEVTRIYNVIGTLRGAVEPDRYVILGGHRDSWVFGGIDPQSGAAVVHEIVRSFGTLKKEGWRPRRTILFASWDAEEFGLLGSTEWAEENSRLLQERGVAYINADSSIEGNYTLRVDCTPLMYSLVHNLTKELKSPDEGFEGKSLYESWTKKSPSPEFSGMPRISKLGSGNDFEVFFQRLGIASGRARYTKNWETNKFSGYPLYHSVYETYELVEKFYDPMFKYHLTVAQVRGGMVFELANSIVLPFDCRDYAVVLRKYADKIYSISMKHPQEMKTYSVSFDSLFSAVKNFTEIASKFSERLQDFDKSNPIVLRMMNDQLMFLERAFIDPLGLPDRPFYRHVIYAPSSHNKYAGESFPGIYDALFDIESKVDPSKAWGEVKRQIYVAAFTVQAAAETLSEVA

## O=C(O)CC[C@H](NC(=O)N[C@@H](CCCCNC(=O)[C@H](Cc1ccc2ccccc2c1)NC(=O)[C@H]1CC[C@H](CNC(=O)CNC(=O)c2cc(NC(=O)CN3CCN(CC(=O)O)CCN(CC(=O)O)CCN(CC(=O)O)CC3)cc(C(=O)NCC(=O)NC[C@H]3CC[C@H](C(=O)N[C@@H](Cc4ccc5ccccc5c4)C(=O)NCCCC[C@H](NC(=O)N[C@@H](CCC(=O)O)C(=O)O)C(=O)O)CC3)c2)CC1)C(=O)O)C(=O)O [DB-02]
[1]
  pKd: > 8.00

## O=C(O)CC[C@H](NC(=O)N[C@@H](CCCCNC(=O)[C@H](Cc1ccc2ccccc2c1)NC(=O)c1ccc(C2CCN(C(=O)CCC(=O)NCC(=O)N3CN(C(=O)CNC(=O)CCC(=O)N4CCC(c5ccc(C(=O)N[C@@H](Cc6ccc7ccccc7c6)C(=O)NCCCC[C@H](NC(=O)N[C@@H](CCC(=O)O)C(=O)O)C(=O)O)cc5)CC4)CN(C(=O)CNC(=O)CN4CCN(CC(=O)O)CCN(CC(=O)O)CCN(CC(=O)O)CC4)C3)CC2)cc1)C(=O)O)C(=O)O [DB-12]
[1]
  pKd: > 8.00
[2]
  Blood uptake: 0.145 % ID/g
  Kidney uptake: 88.175 % ID/g
  Liver uptake: 1.415 % ID/g
  Muscle uptake: 0.135 % ID/g

## O=C(O)CC[C@H](NC(=O)N[C@@H](CCCCNC(=O)[C@H](Cc1ccc2ccccc2c1)NC(=O)c1ccc2c(c1)CCN(C(=O)CCC(=O)NCC(=O)N1CN(C(=O)CNC(=O)CCC(=O)N3CCc4cc(C(=O)N[C@@H](Cc5ccc6ccccc6c5)C(=O)NCCCC[C@H](NC(=O)N[C@@H](CCC(=O)O)C(=O)O)C(=O)O)ccc4C3)CN(C(=O)CNC(=O)CN3CCN(CC(=O)O)CCN(CC(=O)O)CCN(CC(=O)O)CC3)C1)C2)C(=O)O)C(=O)O [DB-14]
[1]
  pKd: > 8.00
[2]
  Blood uptake: 0.06 % ID/g
  Kidney uptake: 31.72 % ID/g
  Liver uptake: 0.37 % ID/g
  Muscle uptake: 0.1 % ID/g
  Tumor uptake: 43.175 % ID/g

## O=C(O)CC[C@H](NC(=O)NC(CCCCNC(=O)[C@H](Cc1ccc2ccccc2c1)NC(=O)[C@H]1CC[C@H](NC(=O)COCCOCCNC(=O)c2cc(NC(=O)CCCCCCCNC(=O)CN3CCN(CC(=O)O)CCN(CC(=O)O)CCN(CC(=O)O)CC3)cc(C(=O)NCCOCCOCC(=O)N[C@H]3CC[C@H](C(=O)N[C@@H](Cc4ccc5ccccc5c4)C(=O)NCCCC[C@H](NC(=O)N[C@@H](CCC(=O)O)C(=O)O)C(=O)O)CC3)c2)CC1)C(=O)O)C(=O)O (stereo partly shown) [DB-15]
[1]
  pKd: > 8.00
[2]
  Blood uptake: 0.035 % ID/g
  Kidney uptake: 8.76 % ID/g
  Liver uptake: 0.095 % ID/g
  Muscle uptake: 0.04 % ID/g
  Tumor uptake: 19.46 % ID/g

## O=C(O)CC[C@H](NC(=O)NC(CCCCNC(=O)[C@H](Cc1ccc2ccccc2c1)NC(=O)[C@H]1CC[C@H](NC(=O)CCC(=O)NCCCC[C@H](NC(=O)CCC(=O)N[C@H]2CC[C@H](C(=O)N[C@@H](Cc3ccc4ccccc4c3)C(=O)NCCCC[C@H](NC(=O)N[C@@H](CCC(=O)O)C(=O)O)C(=O)O)CC2)C(=O)NCCNC(=O)CN2CCN(CC(=O)O)CCN(CC(=O)O)CCN(CC(=O)O)CC2)CC1)C(=O)O)C(=O)O (stereo partly shown) [DB-16]
[1]
  pKd: > 8.00
[2]
  Blood uptake: 0.03 % ID/g
  Kidney uptake: 5.135 % ID/g
  Liver uptake: 0.185 % ID/g
  Muscle uptake: 0.045 % ID/g
  Tumor uptake: 12.015 % ID/g

## O=C(O)CC[C@H](NC(=O)NC(CCCCNC(=O)[C@H](Cc1ccc2ccccc2c1)NC(=O)[C@H]1CC[C@H](NC(=O)c2cc(NC(=O)CNC(=O)CN3CCN(CC(=O)O)CCN(CC(=O)O)CCN(CC(=O)O)CC3)cc(C(=O)N[C@H]3CC[C@H](C(=O)N[C@@H](Cc4ccc5ccccc5c4)C(=O)NCCCC[C@H](NC(=O)N[C@@H](CCC(=O)O)C(=O)O)C(=O)O)CC3)c2)CC1)C(=O)O)C(=O)O (stereo partly shown) [DB-17]
[1]
  pKd: > 8.00

## O=C(O)CC[C@H](NC(=O)NC(CCCCNC(=O)[C@H](Cc1ccc2ccccc2c1)NC(=O)c1ccc(C2CCN(C(=O)CCC(=O)NCCCC[C@H](NC(=O)CCC(=O)N3CCC(c4ccc(C(=O)N[C@@H](Cc5ccc6ccccc6c5)C(=O)NCCCC[C@H](NC(=O)N[C@@H](CCC(=O)O)C(=O)O)C(=O)O)cc4)CC3)C(=O)NCCNC(=O)CN3CCN(CC(=O)O)CCN(CC(=O)O)CCN(CC(=O)O)CC3)CC2)cc1)C(=O)O)C(=O)O (stereo partly shown) [DB-20]
[1]
  pKd: > 8.00
[2]
  Blood uptake: 0.160 % ID/g
  Kidney uptake: 74.455 % ID/g
  Liver uptake: 1.020 % ID/g
  Muscle uptake: 0.175 % ID/g
  Tumor uptake: 41.73 % ID/g

## O=C(O)CC[C@H](NC(=O)NC(CCCCNC(=O)[C@H](Cc1ccc2ccccc2c1)NC(=O)c1ccc(C2CCN(C(=O)CNC(=O)c3cc(NC(=O)COCCOCCNC(=O)CN4CCN(CC(=O)O)CCN(CC(=O)O)CCN(CC(=O)O)CC4)cc(C(=O)NCC(=O)N4CCC(c5ccc(C(=O)N[C@@H](Cc6ccc7ccccc7c6)C(=O)NCCCC[C@H](NC(=O)N[C@@H](CCC(=O)O)C(=O)O)C(=O)O)cc5)CC4)c3)CC2)cc1)C(=O)O)C(=O)O (stereo partly shown) [DB-21]
[1]
  pKd: > 8.00
[2]
  Blood uptake: 1.54 % ID/g
  Kidney uptake: 150.54 % ID/g
  Liver uptake: 3.645 % ID/g
  Muscle uptake: 0.465 % ID/g
  Tumor uptake: 77.54 % ID/g

## O=C(O)CC[C@H](NC(=O)N[C@@H](CCCCNC(=O)[C@H](Cc1ccc2ccccc2c1)NC(=O)C1CCC(CNC(=O)c2cc(NC(=O)C[N+]34CC[N+]56CC[N+]78CC[N+]9(CC3)CC(=O)[O][Lu-4]4597([O]C(=O)C6)[O]C(=O)C8)cc(C(=O)NC[C@H]3CC[C@H](C(=O)N[C@@H](Cc4ccc5ccccc5c4)C(=O)NCCCC[C@H](NC(=O)N[C@@H](CCC(=O)O)C(=O)O)C(=O)O)CC3)c2)CC1)C(=O)O)C(=O)O (stereo partly shown) [[^177Lu] DB-01]
[3]; 3 hr post-injection
  Uptake in Bladder: 65.50 ± 36.65 % ID/g
  Uptake in Kidney: 43.00 ± 7.38 % ID/g
  Uptake in Liver: 2.75 ± 0.90 % ID/g
  Uptake in Muscle: 1.97 ± 0.71 % ID/g
  Uptake in Tumor (22Rv1): 21.25 ± 4.38 % ID/g
[3]; 5 hr post-injection
  Uptake in Bladder: 140.36 ± 10.51 % ID/g
  Uptake in Kidney: 19.29 ± 2.77 % ID/g
  Uptake in Liver: 1.56 ± 0.15 % ID/g
  Uptake in Muscle: 1.10 ± 0.56 % ID/g
  Uptake in Tumor (22Rv1): 21.28 ± 0.42 % ID/g
[3]; 24 hr post-injection
  Uptake in Bladder: 0.61 ± 0.00 % ID/g
  Uptake in Kidney: 1.32 ± 0.63 % ID/g
  Uptake in Liver: 0.91 ± 0.45 % ID/g
  Uptake in Muscle: 0.51 ± 0.17 % ID/g
  Uptake in Tumor (22Rv1): 15.51 ± 2.65 % ID/g
[3]; 72 hr post-injection
  Uptake in Bladder: 1.03 ± 0.62 % ID/g
  Uptake in Kidney: 1.38 ± 0.29 % ID/g
  Uptake in Liver: 0.90 ± 0.42 % ID/g
  Uptake in Muscle: 0.81 ± 0.23 % ID/g
  Uptake in Tumor (22Rv1): 12.41 ± 0.95 % ID/g
[3]; 120 hr post-injection
  Uptake in Bladder: 0.92 ± 0.06 % ID/g
  Uptake in Kidney: 0.77 ± 0.62 % ID/g
  Uptake in Liver: 0.99 ± 0.22 % ID/g
  Uptake in Muscle: 0.43 ± 0.17 % ID/g
  Uptake in Tumor (22Rv1): 8.90 ± 0.48 % ID/g
[3]; 168 hr post-injection
  Uptake in Bladder: 1.01 ± 0.38 % ID/g
  Uptake in Kidney: 1.53 ± 0.46 % ID/g
  Uptake in Liver: 1.04 ± 0.26 % ID/g
  Uptake in Muscle: 0.65 ± 0.34 % ID/g
  Uptake in Tumor (22Rv1): 7.85±1.16 % ID/g
[3]; at 180 minutes, according to calculations
  uptake in tumor: 13.55±3.85 % ID/g
[3]; early stages post-injection
  excretion: rapidly excreted through the kidneys and bladder
[3]; post-administration
  time at which concentration of the radiopharmaceutical in the tumor reaches its peak: 5 h
